Measured values published in patent US20170355959A1, “METHODS FOR MOBILISING POPULATIONS OF STEM CELLS” (Imperial Innovations Limited, priority 2014, published 2017).
Read-outs that look alike come from different tables or passages of the source.

Assays:
CFU-Fs (MSPCs) = assay: Mobilization of MSPCs into peripheral blood (CFU-F assay); type: in vivo, mice; conditions: for priming of MSCs for mobilization: 4 day pre-treatment, CB1 and CB2 agonists in combination, even with FAAH inhibitor
FFAs = conditions: infusion directly into the vasculature of the canine femur; cited from earlier work
HSPCs [1] = assay: Mobilization of HSPCs into peripheral blood (CFU-HPC assay); type: in vivo, mice; conditions: for effect on HSPC mobilization induced by 4 day beta 3 adrenergic agonist and CXCR4 antagonist: inhibitor or antagonist given 60 minutes prior to BRL 37344, once daily for 4 days; for level of HSPC mobilization: 3 day pre-treatment with one agonist alone, beta 3 agonist and CXCR4 antagonist on day 4; for priming of HSPCs for mobilization: 4 day pre-treatment, CB1 and CB2 agonists in combination, even with FAAH inhibitor
Method: (§1) Mice were administered the β-adrenergic agonists isoproterenol (10 mg/kg i.p.), clenbuterol (5 mg/kg i.p.) and BRL 37344 (10 mg/kg i.p.), the cannabinoid receptor agonists ACEA (10 mg/kg i.p.) and GP1a (5 mg/kg i.p.), or vehicle either on 4 consecutive days or 2 hours prior to the cull. 1 hour after the last injection, mice were administered the CXCR4 antagonist AMD3100 (5 mg/kg i.p.) or vehicle. 1 hour later their blood was collected via cardiac puncture for enumeration of circulating CFU-HPCs and CFU-Fs. Mice were administered murine G-CSF (100 μg/kg i.p.) or vehicle on 4 consecutive days. On day 5, blood was collected via cardiac puncture for enumeration of circulating HSPCs.
(§2) Harvested peripheral blood or perfusate was red blood cell-lysed and 1×10^5 cells were added to tissue culture-treated petri dishes containing 1 ml of Methocult™ (M3434; StemCell Technologies) to select for CFU-HPCs. Cultures were incubated at 37° C. and quantified on day 12. Similarly, 1×10^6 bone marrow cells harvested by bone marrow flush of the hind limb femur were plated for CFU-HPCs.

total white blood cells = conditions: CXCR4 antagonist alone
Method: as §1

HSPCs [2] = conditions: humans; cited from earlier work
MSCs = conditions: G-CSF and/or the CXCR4 antagonist; cited from earlier work
HSPCs [3] = conditions: mice; cited from earlier work
HPCs = assay: In situ perfusion of mouse hind limb, CFU-HPCs in perfusate; type: in vivo, mice
Method: (§3) Mice were administered BRL 37344 (10 mg/kg i.p.) or vehicle on 4 consecutive days. 1 hour after the last injection, the mice were anaesthetized. The femoral vein and artery were exposed and cannulated in situ immediately after the hind limb was isolated by occlusion of the surrounding arteries as previously described (Pitchford et al, 2009; Pitchford et al, 2010). Perfusion buffer was infused via the arterial cannula and removed from the venous cannula using a Minipuls Peristaltic Pump (Anachem). The hind limb was initially infused with AMD3100 (0.1 mM) or vehicle for 10 minutes using an infusion/withdrawal pump (Harvard Instruments) and was further perfused for 50 minutes with perfusion buffer (Pitchford et al, 2010). The perfusate was collected over 60 minutes and then centrifuged and resuspended in DMEM (Gibco) +20% fetal bovine serum for enumeration of CFU-HPCs and CFU-Fs.
as §2

CFU-Fs (MSCs) = assay: In situ perfusion of mouse hind limb, CFU-Fs in perfusate; type: in vivo, mice
Method: as §3
Harvested peripheral blood or perfusate was red blood cell-lysed and 1×10^6 cells were added to tissue culture-treated 6-well plates containing 3 ml of Mesencult™ (05502; StemCell Technologies) to select for CFU-Fs. Similarly, 1×10^6 bone marrow cells harvested by bone marrow flush of the hind limb femur were plated for CFU-Fs. Cultures were incubated at 37° C. and media was changed on day 7. Bone marrow-derived CFU-Fs were enumerated on day 13 and blood- and perfusate-derived CFU-Fs were enumerated on day 21. Blood derived-CFU-Fs were further expanded and assessed for mesenchymal lineage markers by flow cytometry and following CD45 depletion (flow cytometry sorting of CD45 negative for mesenchymal trilineage differentiation (Supplemental Experimental Procedures).

free fatty acids = assay: Free fatty acid assay in blood plasma; type: in vivo, mice; conditions: pre-treatment 60 minutes prior to the b3 adrenergic agonist, 4 days
Method: as §1
Free fatty acid content in blood plasma was quantified using a serum/plasma fatty acid detection Kit (Zen Bio) and the assay was performed according to the manufacturers' instructions. Data are expressed as μM concentration of free fatty acids.

CXCL12 = conditions: in vivo; cited from earlier work
[4] = acute treatment (2 h), alone or in combination with acute CXCR4 antagonist
[5] = pre-treated once daily for 4 days, then AMD3100, blood 1 hour later
[6] = AMD3100 alone, 5 mg/kg i.p., blood 1 hour later
[7] = vehicle pre-treated mice, hind limb infused with CXCR4 antagonist for 10 min
[8] = 3 days CB1 and CB2 agonists in combination, beta 3 agonist on the fourth day prior to CXCR4 antagonist
[9] = four day pretreatment, b3 adrenergic agonist in combination with FAAH inhibitor

## CC(C)NCC(O)c1ccc(O)c(O)c1 (centres unmarked) [isoproterenol]
CFU-Fs (MSPCs); 4 day pre-treatment alone
  circulating numbers of CFU-Fs: did not change circulating numbers of HSPCs or CFU-Fs
CFU-Fs (MSPCs); [4]
  CFU-Fs in the blood: did not result in detectable numbers of CFU-Fs in the blood
CFU-Fs (MSPCs); [5]
  circulating CFU-Fs: CFU-Fs were mobilized
FFAs
  release of FFAs into the femoral vein: release of FFAs into the femoral vein
HSPCs [1]; 4 day pre-treatment alone
  circulating numbers of HSPCs: did not change circulating numbers of HSPCs or CFU-Fs
HSPCs [1]; [4]
  mobilization of HSPCs: did not enhance the mobilization of HSPCs above AMD3100 alone
HSPCs [1]; [5]
  circulating HSPC numbers: significantly elevated over treatment with the CXCR4 antagonist alone

## COc1ccc2cc([C@H](C)C(=O)O)ccc2c1 [Naproxen]
HSPCs [1]
  effect on HSPC mobilization induced by 4 day beta 3 adrenergic agonist and CXCR4 antagonist: significant increase in the mobilization of both HSPCs or CFU-Fs

## COc1ccc(C(=O)c2c(C)n(CCN3CCOCC3)c3cc(I)ccc23)cc1 [AM630]
CFU-Fs (MSPCs); mouse, in vivo
  effect on CFU-F mobilization induced by 4 day beta 3 adrenergic agonist and CXCR4 antagonist: significantly suppressed
HSPCs [1]
  effect on HSPC mobilization induced by 4 day beta 3 adrenergic agonist and CXCR4 antagonist: significantly suppressed

## c1cc(CN2CCCNCCNCCCNCC2)ccc1CN1CCCNCCNCCCNCC1 [AMD3100]
Total white blood cells
  mobilization of total white blood cells: significantly increased
HSPCs [2]
  circulating numbers of HSPCs: stimulates a rapid rise in circulating numbers of HSPCs
MSCs
  mobilisation of MSCs from the bone marrow into the blood: not effective
CFU-Fs (MSPCs); [6]
  CFU-Fs in blood: no colony forming units-fibroblasts (CFU-Fs; a measure of MSCs) were detectable
HSPCs [3]
  circulating numbers of HSPCs: stimulates a rapid rise in circulating numbers of HSPCs
HPCs; [7]
  HPCs mobilized from the bone marrow: HPCs but not MSCs were mobilized from the bone marrow
HSPCs [1]; [6]
  mobilization of HSPCs into the blood: stimulated mobilization of HSPCs into the blood
CFU-Fs (MSCs); [7]
  MSCs mobilized from the bone marrow: HPCs but not MSCs were mobilized from the bone marrow

## CCCCC/C=C\C/C=C\C/C=C\C/C=C\CCCC(=O)NCCCl [ACEA, Arachidonyl-2-chloroethylamide]
CFU-Fs (MSPCs)
  priming of MSCs for mobilization: not sufficient to prime MSCs or HSPCs for mobilization
CFU-Fs (MSPCs); mouse, in vivo
  CFU-F mobilization: stem cells were mobilized
  level of CFU-F mobilization: significantly less than that achieved using these agonists in combination
HSPCs [1]
  level of HSPC mobilization: significantly less than that achieved using these agonists in combination
  priming of HSPCs for mobilization: not sufficient to prime MSCs or HSPCs for mobilization
HSPCs [1]; [8]
  HSPC mobilization: stem cells were mobilized

## CC(C)(C)NCC(O)c1cc(Cl)c(N)c(Cl)c1 (centres unmarked) [Clenbuterol]
CFU-Fs (MSPCs); mouse, in vivo
  MSC mobilization: did not stimulate HSPC or MSC mobilization
HSPCs [1]; once daily for 4 days, alone or in combination with the CXCR4 antagonist
  HSPC mobilization: did not stimulate HSPC or MSC mobilization

## Cc1ccc2c(c1)Cc1c(C(=O)NN3CCCCC3)nn(-c3ccc(Cl)cc3Cl)c1-2 [GP1a, N-(Piperidin-1-yl)-1-(2,4-dichlorophenyl)-1,4-dihydro-6-methylindeno[1,2-c]pyrazole-3-carboxamide]
CFU-Fs (MSPCs)
  priming of MSCs for mobilization: not sufficient to prime MSCs or HSPCs for mobilization
CFU-Fs (MSPCs); mouse, in vivo
  CFU-F mobilization: stem cells were mobilized
  level of CFU-F mobilization: significantly less than that achieved using these agonists in combination
HSPCs [1]
  level of HSPC mobilization: significantly less than that achieved using these agonists in combination
  priming of HSPCs for mobilization: not sufficient to prime MSCs or HSPCs for mobilization
HSPCs [1]; [8]
  HSPC mobilization: stem cells were mobilized

## CCCCCCCCCCC[C@@H](C[C@@H]1OC(=O)[C@H]1CCCCCC)OC(=O)[C@H](CC(C)C)NC=O [Orlistat]
Free fatty acids
  effect on the b3 adrenergic agonist induced increase of FFA levels in plasma: attenuated
CFU-Fs (MSPCs); inhibitor or antagonist given 60 minutes prior to BRL 37344, once daily for 4 days
  effect on CFU-F mobilization induced by 4 day beta 3 adrenergic agonist and CXCR4 antagonist: completely abrogated
HSPCs [1]
  effect on HSPC mobilization induced by 4 day beta 3 adrenergic agonist and CXCR4 antagonist: completely abrogated

## Cc1c(C(=O)NN2CCCCC2)nn(-c2ccc(Cl)cc2Cl)c1-c1ccc(I)cc1 [AM251]
HSPCs [1]
  effect on HSPC mobilization induced by 4 day beta 3 adrenergic agonist and CXCR4 antagonist: significantly suppressed

## NC(=O)c1cccc(-c2cccc(OC(=O)NC3CCCCC3)c2)c1 [URB597]
CFU-Fs (MSPCs); mouse, in vivo
  effect on CFU-F mobilization induced by 4 day beta 3 adrenergic agonist and CXCR4 antagonist: significantly enhanced
HPCs; [9]
  HPC egress from the bone marrow in response to infusion of the CXCR4 antagonist: significantly enhanced both HPC and MSC egress from the bone marrow
HSPCs [1]
  effect on HSPC mobilization induced by 4 day beta 3 adrenergic agonist and CXCR4 antagonist: significantly enhanced
CFU-Fs (MSCs); [9]
  MSC egress from the bone marrow in response to infusion of the CXCR4 antagonist: significantly enhanced both HPC and MSC egress from the bone marrow

B1: G-CSF: cytokine, granulocyte colony stimulating factor; murine G-CSF (PeproTech) (protein, UniProt P09920 31-208, looked up)
Granulocyte …: VPLVTVSALPPSLPLPRSFLLKSLEQVRKIQASGSVLLEQLCATYKLCHPEELVLLGHSLGIPKASLSGCSSQALQQTQCLSQLHSGLCLYQGLLQALSGISPALAPTLDLLQLDVANFATTIWQQMENLGVAPTVQPTQSAMPAFTSAFQRRAGGVLAISYLQGFLETARLALHHLA
CXCL12
  levels of CXCL12 in the bone marrow: reducing levels of CXCL12 in the bone marrow
MSCs
  mobilisation of MSCs from the bone marrow into the blood: not effective
CFU-Fs (MSPCs); mouse, in vivo, ip
  effect on β3-AR agonist/AMD3100 mobilisation of MSPCs: impairs
HSPCs [1]; in the presence or absence of AM251 or AM630, 4 consecutive days
  G-CSF-induced mobilization of haematopoietic progenitor cells: Independent of Cannabinoid Receptor Signalling
